One block for each molecule: values may come before it.
Assay: solvent given as SMILES
[1] = in O=P(c1ccccc1)(c1ccccc1)c1ccccc1Oc1ccccc1P(=O)(c1ccccc1)c1ccccc1

SMILES: CCCCn1c2ccc(C#Cc3cccs3)cc2c2c1c1c3ccc(C#Cc4cccs4)cc3n(CCCC)c1c1c3ccc(C#Cc4cccs4)cc3n(CCCC)c21
fluorescence lifetime (in C1CCOC1): 3.8 ns

SMILES: Cc1ccc(-c2ccc(-c3ccc(-c4ccc(C)cc4)cc3/C(=C(/c3ccccc3)c3cc(-c4ccc(C)cc4)ccc3-c3ccc(-c4ccc(C)cc4)cc3)c3ccccc3)cc2)cc1
fluorescence lifetime (in C1CCOC1): 8.6 ns

SMILES: CC1=C(c2ccc(N(C)C)cc2)C(C)=[N+]2C1=C(c1c(-c3ccccn3)nc3ccccn13)c1c(C)cc(C)n1[B-]2(F)F
fluorescence lifetime (in ClCCl): 0.5 ns

SMILES: CCCCC(CC)Cn1c2cc(C#N)ccc2c2cc(-c3ccc(N(c4ccccc4)c4ccccc4)cc3)c(C#N)cc21 (centres undefined)
fluorescence lifetime (in ClCCl): 7.59 ns

SMILES: c1ccc(-c2nc(-c3ccccc3)nc(-c3ccc(N4c5ccccc5C5(c6ccccc6-c6ccccc65)c5ccccc54)cc3)n2)cc1
fluorescence lifetime [1]: 33 ns

SMILES: Cn1nc(-c2ccccc2)c2nc3cc(Cl)ccc3nc21
fluorescence lifetime (in C1CCCCC1): 23.9 ns
fluorescence lifetime (in C1CCOC1): 20.1 ns
fluorescence lifetime (in CC#N): 7.74 ns

SMILES: CN(C)c1ccc(C2=Cc3c4ccccc4c4ccccc4[n+]3[B-](F)(F)O2)cc1
fluorescence lifetime (in ClC(Cl)Cl): 2.6 ns

SMILES: COc1ccc(-c2c3ccccc3c(C#Cc3ccccc3)c3cc4ccccc4cc23)cc1
fluorescence lifetime (in ClCCl): 9.7 ns

SMILES: COc1ccc(C2=CC(c3cc(OC)cc(OC)c3)=[O+][B-](F)(F)O2)cc1
fluorescence lifetime (in ClCCl): 7.4 ns

SMILES: COc1ccc(C2=C3C(C)=CC(C=Cc4ccc(C(=O)OC5C[C@H]6CCC5(C)C6(C)C)cc4)=[N+]3[B-](F)(F)n3c(/C=C/c4ccc(C(=O)OC5CC6CCC5(C)C6(C)C)cc4)cc(C)c32)cc1 (some centres undefined)
fluorescence lifetime (in Cc1ccccc1): 2.6 ns

SMILES: COc1ccc(C2=Nc3cccc4[n+]3[B-](F)(O2)OC(c2ccc(OC)cc2)=N4)cc1
fluorescence lifetime (in ClCCl): 1.8 ns

SMILES: CCCCCCCCCCOc1cc2cc(C#Cc3ccc(/C=C(\C#N)C(=O)O)cc3)c(=O)oc2cc1OCCCCCCCCCC
fluorescence lifetime (in CC#N): 1.1 ns

SMILES: C[n+]1ccn(CCCCc2ccc3c(c2)c2ccccc2n3-c2cc(C#N)c(C#N)cc2-n2c3ccccc3c3cc(CCCCn4cc[n+](C)c4)ccc32)c1
fluorescence lifetime (in CC#N): 4.97 ns

SMILES: CC(C)(C)c1ccc2c(c1)c1cc(C(C)(C)C)ccc1n2-c1ccc(S(=O)(=O)c2ccc(-n3c4ccc(C(C)(C)C)cc4c4cc(C(C)(C)C)ccc43)cc2)cc1
fluorescence lifetime (in Cc1ccccc1): 5.3 ns
fluorescence lifetime [1]: 7.6 ns

SMILES: CN(C)c1ccc2nc(-c3ccc(C=C(C#N)C#N)cc3)sc2c1
fluorescence lifetime (in C1CCCCC1): 3.1 ns

SMILES: CCCCn1c(-c2ccc(-c3nnc(-c4ccc(-c5nc6ccccc6n5CCCC)cc4)o3)cc2)nc2ccccc21
fluorescence lifetime (in ClCCl): 0.99 ns

SMILES: CCCCc1cc2cccc[n+]2[b-]2c(-c3cccc4[b-]3[n+]3ccccc3cc4CCCC)cccc21
fluorescence lifetime (in C1CCCCC1): 4.3 ns

SMILES: C[Si](C)(C)c1ccc2ccc3c([Si](C)(C)C)ccc4ccc1c2c43
fluorescence lifetime (in CCCCCC): 53.7 ns
fluorescence lifetime (in CO): 71.8 ns
fluorescence lifetime (in ClCCl): 65.5 ns

SMILES: C(/C=C/c1cc2c3c(c1)CCCN3CCC2)=C\c1ccncc1
fluorescence lifetime (in C1COCCO1): 0.25 ns
fluorescence lifetime (in CC#N): 0.57 ns

SMILES: COc1ccc(-c2nc(C(C)=O)c(C)o2)cc1
fluorescence lifetime (in CC#N): 3.92 ns
fluorescence lifetime (in CCO): 2.31 ns
fluorescence lifetime (in CCOC(C)=O): 4.53 ns
fluorescence lifetime (in CCOCC): 1.79 ns
fluorescence lifetime (in ClCCl): 1.7 ns

SMILES: CC1(C)c2cc(C#N)ccc2-c2ccc(N3c4ccccc4Oc4ccccc43)cc21
fluorescence lifetime (in C1CCCCC1): 1.89 ns
fluorescence lifetime (in C1CCOC1): 9.74 ns
fluorescence lifetime (in CC#N): 1.23 ns
fluorescence lifetime (in Cc1ccccc1): 4.94 ns
fluorescence lifetime (in ClC(Cl)Cl): 11.6 ns

SMILES: CC(C)(C)c1ccc(C2=C(c3ccc(-n4c5ccccc5c5ccccc54)cc3)S(=O)(=O)c3c2sc(-c2ccc(-n4c5ccccc5c5ccccc54)cc2)c3-c2ccc(C(C)(C)C)cc2)cc1
fluorescence lifetime (in C1CCOC1): 0.47 ns

SMILES: Cc1cccc2[n+]1[B-](F)(F)n1c(c3cccc4cccc1c43)=N2
fluorescence lifetime (in ClCCl): 7.1 ns

SMILES: CC(=O)O[B-]1(OC(C)=O)OC(/C=C/c2ccc(C)cc2)=CC(/C=C/c2ccc(C)cc2)=[O+]1
fluorescence lifetime (in C1CCOC1): 1.32 ns
fluorescence lifetime (in CC#N): 1.23 ns
fluorescence lifetime (in CC(C)=O): 1.19 ns
fluorescence lifetime (in CS(C)=O): 1.27 ns
fluorescence lifetime (in Cc1ccccc1): 1.34 ns
fluorescence lifetime (in ClC(Cl)Cl): 1.25 ns
fluorescence lifetime (in ClCCl): 1.26 ns

SMILES: CN(C)c1ccc(/C=C/C=C/c2ccc(B(O)O)cc2)cc1
fluorescence lifetime (in C1CCCCC1): 0.621 ns

SMILES: N#Cc1ccc2c(c1)CCc1nc(-c3ccc([N+](=O)[O-])cc3)c3c(c1-2)CCc1cc(C#N)ccc1-3
fluorescence lifetime (in C1CCOC1): 1.36 ns
fluorescence lifetime (in CC#N): 1.11 ns
fluorescence lifetime (in CCCCCC): 0.64 ns
fluorescence lifetime (in CCOC(C)=O): 1.11 ns
fluorescence lifetime (in CO): 0.84 ns
fluorescence lifetime (in CS(C)=O): 1.24 ns
fluorescence lifetime (in Cc1ccccc1): 0.88 ns
fluorescence lifetime (in ClCCl): 1.46 ns

SMILES: CC1=CC(C)=[N+]2C1=Cc1c3ccccc3c(C#Cc3cccs3)n1[B-]2(F)F
fluorescence lifetime (in CCCCCC): 4.69 ns
fluorescence lifetime (in CCCCCCCCO): 3.74 ns
fluorescence lifetime (in CCOC(C)=O): 4.07 ns
fluorescence lifetime (in CN(C)C=O): 3.46 ns

SMILES: N#Cc1c(-n2c3ccccc3c3ccccc32)c(-n2c3ccccc3c3ccccc32)c(-n2c3ccccc3c3ccccc32)c(-n2c3ccccc3c3ccccc32)c1-n1c2ccccc2c2ccccc21
fluorescence lifetime (in Cc1ccccc1): 3.8 ns
fluorescence lifetime (in c1cc(-c2cccc(-n3c4ccccc4c4ccccc43)c2)cc(-n2c3ccccc3c3ccccc32)c1): 3.2 ns

SMILES: CC(C)(C)c1ccc(Oc2cc3c4c(cc(Oc5ccc(C(C)(C)C)cc5)c5c6c(Oc7ccc(C(C)(C)C)cc7)cc7c8c(cc(Oc9ccc(C(C)(C)C)cc9)c(c2c45)c86)C(=O)OC7=O)C(=O)OC3=O)cc1
fluorescence lifetime (in ClC(Cl)Cl): 6.4 ns

SMILES: c1ccc(-c2nc(-c3ccc(-c4cccs4)s3)[nH]c2-c2ccccc2)cc1
fluorescence lifetime (in CC#N): 0.86 ns

SMILES: Cc1cc(C)c(B(c2ccccc2-n2c3ccccc3c3ccccc32)c2c(C)cc(C)cc2C)c(C)c1
fluorescence lifetime (in Cc1ccccc1): 38 ns

SMILES: C[n+]1c2c(c(-c3ccccc3)c3c1CCCC3)CCCC2
fluorescence lifetime (in CCO): 5.39 ns

SMILES: c1ccc(N(c2ccccc2)c2ccc3c4cccc5c(N(c6ccccc6)c6ccccc6)ccc(c6cccc2c63)c54)cc1
fluorescence lifetime (in ClCCl): 4.71 ns

SMILES: CCCCCCCCCCCn1cccc1C1=[N+]2C(=Cc3c(C)cc(C)n3[B-]2(F)F)c2ccccc21
fluorescence lifetime (in ClCCl): 8.89 ns

SMILES: CC(C)(C)c1cc2c3cc(C(C)(C)C)c(-c4cc5cc6c7cccc8cccc(c9cc(C(C)(C)C)cc(c5cc4C(C)(C)C)c96)c87)cc3cc3c4cccc5cccc(c(c1)c23)c54
fluorescence lifetime (in CC1CCCCC1): 3.4 ns

SMILES: CC(C)(C)c1ccc(Oc2c3c4c(cc(Oc5ccc(C(C)(C)C)cc5)c5c6c(Oc7ccc(C(C)(C)C)cc7)c(Oc7ccc(C(C)(C)C)cc7)c7c8c(cc(Oc9ccc(C(C)(C)C)cc9)c(c(c2Oc2ccc(C(C)(C)C)cc2)c45)c86)C(=O)OC7=O)C(=O)OC3=O)cc1
fluorescence lifetime (in ClC(Cl)Cl): 6 ns

SMILES: C(#Cc1cc2ccc3cccc4ccc(c1)c2c34)c1ccccc1
fluorescence lifetime (in Cc1ccccc1): 71 ns

SMILES: COc1ccc(C2=C3C(C)=CC(C)=[N+]3[B-](F)(F)n3c(/C=C/c4ccc(N(C)C)cc4)cc(C)c32)cc1
fluorescence lifetime (in C1CCCCC1): 3.5 ns
fluorescence lifetime (in C1CCOC1): 3 ns
fluorescence lifetime (in C1COCCO1): 3.43 ns
fluorescence lifetime (in CC#N): 1.2 ns
fluorescence lifetime (in CC(C)=O): 2.23 ns
fluorescence lifetime (in CCC#N): 1.84 ns
fluorescence lifetime (in CCCC#N): 2.26 ns
fluorescence lifetime (in CCCCO): 2.45 ns
fluorescence lifetime (in CCOC(C)=O): 3.31 ns
fluorescence lifetime (in CCOCC): 3.74 ns
fluorescence lifetime (in CO): 0.85 ns
fluorescence lifetime (in Cc1ccccc1): 3.25 ns
fluorescence lifetime (in ClC(Cl)Cl): 3.47 ns

SMILES: N#C/C(=C\c1ccc(-c2ccncc2)cc1)c1ccc(-c2ccncc2)cc1
fluorescence lifetime (in ClCCl): 0.1 ns

SMILES: CCCCCCCCc1ccc(-c2ccc(/C=C(\C#N)c3ccc(-c4cccc5cccc(-c6ccc(/C(C#N)=C/c7ccc(-c8ccc(CCCCCCCC)cc8)cc7)cc6)c45)cc3)cc2)cc1
fluorescence lifetime (in Cc1ccccc1): 4.9 ns

More lines, now with the values ahead:

fluorescence lifetime (in O): 5.7 ns
SMILES: NNC(=O)N1C(=O)c2cc(S(=O)(=O)[O-])cc3c(N)c(S(=O)(=O)[O-])cc(c23)C1=O

fluorescence lifetime (in O): 7.1 ns
SMILES: O=C(O)CCCCCn1c2ccc(Br)cc2c(=O)c2cc(S(=O)(=O)O)ccc21

fluorescence lifetime (in CN(C)C=O): 1 ns
SMILES: O=C([O-])c1ccc(C(=O)[O-])c2cc3ccccc3cc12

fluorescence lifetime (in CCCCCC): 1.14 ns
SMILES: COc1ccc(N2c3cc(OC)ccc3N=c3cc4c(cc32)=Nc2cc(C(C)(C)C)cc(C(C)(C)C)c2O4)cc1

fluorescence lifetime (in CCO): 1.8 ns
fluorescence lifetime (in ClCCl): 4 ns
SMILES: CCN(CC)c1ccc2cc(C#N)/c(=N\C(C)=O)oc2c1

fluorescence lifetime (in C1CCOC1): 2.1 ns
SMILES: COc1cc2c(cc1-c1ccc(C#N)cc1)Cc1c3c(c4c(c1-2)-c1cc(OC)c(-c2ccc(C#N)cc2)cc1C4)C(=O)N(CCC(C)C)C3=O

fluorescence lifetime (in ClCCl): 5.5 ns
SMILES: O=c1c2cccc3cccc(c32)c2nc3c4ccccc4c4ccccc4c3n12

fluorescence lifetime (in ClCCl): 6.19 ns
SMILES: CCCCCCCCCCCCN1C(=O)c2c(c3ccc4cc(-c5ccc(-c6ccccc6)cc5)c(OC)cc4c3c3c2ccc2cc(-c4ccc(-c5ccccc5)cc4)c(OC)cc23)C1=O

fluorescence lifetime (in ClCCl): 5.1 ns
SMILES: CCOC(=O)CCCCCn1c2ccc([N+](=O)[O-])cc2c(=O)c2cc3c(cc21)c(=O)c1cc([N+](=O)[O-])ccc1n3CCCCCC(=O)OCC

fluorescence lifetime (in CN(C)C=O): 8.17 ns
fluorescence lifetime (in CS(C)=O): 0.06 ns
SMILES: C=CCNS(=O)(=O)c1ccc2c(c1)C(=O)/C(=C1\Sc3ccc(S(=O)(=O)NCC=C)cc3C1=O)S2

fluorescence lifetime (in CCO): 5.19 ns
fluorescence lifetime (in ClC(Cl)Cl): 3.16 ns
fluorescence lifetime (in ClCCl): 5.8 ns
SMILES: CCN(CC)c1ccc2c(-c3ccccc3C(=O)O)c3c([o+]c2c1)/C(=C/Nc1ccccc1)CCC3

fluorescence lifetime (in C1CCCCC1): 0.064 ns
fluorescence lifetime (in CC#N): 0.376 ns
fluorescence lifetime (in CN(C)C=O): 0.194 ns
fluorescence lifetime (in CO): 0.148 ns
fluorescence lifetime (in CS(C)=O): 0.196 ns
fluorescence lifetime (in c1ccccc1): 0.201 ns
SMILES: COc1cc(/C=C/C(=O)CC(=O)/C=C/c2ccc(O)c(OC)c2)ccc1O

fluorescence lifetime (in O): 17 ns
SMILES: COc1ccc2c(c1)c(=O)c1ccccc1n2CCCCCC(=O)O

fluorescence lifetime (in ClCCl): 4.56 ns
SMILES: CCOC(=O)c1ccc(C2CC(c3cccc4ccccc34)=NN2c2ccc(C)cc2)cc1 (centres undefined)

fluorescence lifetime (in ClCCl): 1.6 ns
SMILES: COc1ccc2cc(/C=C/C3=C4CCc5ccccc5C4=[O+][B-](F)(F)O3)ccc2c1

fluorescence lifetime (in c1ccccc1): 3.9 ns
SMILES: Cc1nc2c(ccc3ccc(O)cc32)oc1=O

fluorescence lifetime (in CN(C)C=O): 1.48 ns
SMILES: CCCCCCCCC1(CCCCCCCC)c2cc(-c3ccc(C(=O)OC)cc3)ccc2-c2ccc(-c3ccc(C(=O)OC)cc3)cc21

— the Deep4Chem optical property database
